How the values were obtained:
[1] = Cytotoxicity by neutral red dye uptake in 2.2.15 cells; type: cell-based; conditions: human, 2.2.15 cells (confluent cultures, HBV-replicating)
HCV RNA replicon = HCV RNA replicon assay in Huh7 ET cells; type: cell-based; conditions: in comparison to the parent compound 2
2.2.15 cells = experiment: Cytotoxicity by neutral red dye uptake in 2.2.15 cells; type: cell-based; conditions: read-out: Cytotoxicity IC50; 2.2.15 cells, neutral red dye uptake
wild type HBV = experiment: HBV antiviral assay in 2.2.15 cells, HBV DNA by quantitative blot hybridization; type: cell-based; conditions: read-out: Anti-HCV activity EC50(µM) virion, extracellular virion HBV DNA, nine consecutive daily doses
HBV mutant rtL180M = experiment: Intracellular HBV DNA replication assay, transient transfection, rtL180M; type: cell-based; conditions: Hepatitis B virus, 96 h
HBV mutant rtM204V = experiment: Intracellular HBV DNA replication assay, transient transfection, rtM204V; type: cell-based; conditions: Hepatitis B virus, 96 h
HBV WT = experiment: Intracellular HBV DNA replication assay, transient transfection, WT; type: cell-based; conditions: Hepatitis B virus, 96 h
HBV mutant rtM204I = experiment: Intracellular HBV DNA replication assay, transient transfection, rtM204I; type: cell-based; conditions: Hepatitis B virus, 96 h

Nc1ncnc2c1c(I)cn2[C@@H]1C=C(CO)[C@@H](O)[C@H]1O [Compound 15, (-)-(1R, 2S, 3R)-4-Amino-5-iodo-7-[2,3-dihydroxy-4-hydroxymethyl-4-cyclopenten-1-yl] -7H-pyrrolo[2,3-d] pyrimidine]
IC50 at 9 days [1]: > 300 µM

Nc1ncnc2c1c(F)cn2[C@@H]1C=C(CO)[C@@H](O)[C@H]1O [Compound 12, (-)-(1R, 2S, 3R)-4-Amino-5-fluoro-7-[2,3-dihydroxy-4-hydroxymethyl-4-cyclopenten-1-yl]-7H-pyrrolo[2,3-d]pyrimidine]
anti-HCV activity (in words) (HCV RNA replicon): devoid of anti-HCV activity

C=Cc1cn([C@@H]2C=C(CO)[C@@H](O)[C@H]2O)c2ncnc(N)c12 [Compound 22, (-)-(1R, 2S, 3R)-4-Amino-5-ethenyl-7-[2,3-dihydroxy-4-hydroxymethyl-4-cyclopenten-1-yl]-7H-pyrrolo[2,3-d]pyrimidine]
IC50 at 9 days [1]: > 300 µM

Nc1ccn([C@@H]2CS[C@H](CO)O2)c(=O)n1 [Compound 3TC, lamivudine, reference compound]
IC50 at 9 days [1]: > 2000 µM

4-amino-7-(2,3-dihydroxy-4-hydroxymethyl-4-cyclopenten-1-yl)-7H-pyrrolo[2,3-d]pyrimidine [Compound 2]
IC50 (2.2.15 cells): 22 µM | IC50 (Huh7 ET cells): > 100 µM | EC50 (wild type HBV): 0.6 µM

C#Cc1cn([C@@H]2C=C(CO)[C@@H](O)[C@H]2O)c2ncnc(N)c12 [Compound 24, (-)-(1R, 2S, 3R)-4-Amino-5-ethynyl-7-[2,3-dihydroxy-4-hydroxymethyl-4-cyclopenten-1-yl]-7H-pyrrolo[2,3-d]pyrimidine]
EC50 (HBV mutant rtL180M): 2 µM | EC50 (HBV mutant rtM204V): 2.1 µM | EC50 (HBV WT): 2.5 µM | IC50 at 9 days [1]: > 300 µM | EC50 (HBV mutant rtM204I): 3 µM
